Marks after values point to notes of the source that are not given here.
Tests used:
[1] = tested on: cholesterol 7α-hydroxylase; test: 7α-hydroxylase activity in liver microsome fraction of OLETF rats; assay type: in vivo, rat; details: M±SE
Description: Purified liver microsome fraction was produced according to a normal method, and the cholesterol in the liver microsome fraction was used as the substrate. The activity of cholesterol 7α-hydroxylase was determined by HPLC in accordance with the method described in “An improved method for assay of cholesterol 7α-hydroxylase activity” by Tadashi Ogishima and one other member (USA, Analytical Biochemistry, vol. 158, p 228-232, 1986). The results of measurement of 7α-hydroxylase activity are shown in terms of the amount of HCO (7α-hydroxy-4-cholesten-3-on) generated per 1 mg of protein content in one minute in the microsome fraction (pmol/min/mg of microsome protein).

[2] = tested on: Otsuka Long-Evans Tokushima Fatty (OLETF) rats; test: Liver weight ratio and liver lipid contents in OLETF rats; assay type: in vivo, rat; details: end of six-week experiment, M±SE
Description: Immediately after the extraction of all the blood, the liver was quickly removed from all the rats in each group, and the wet weight of each liver was measured. The liver weight ratio of each rat is shown in terms of the liver weight per unit of body weight (100 g) at the time of removal. Extraction of lipid from each liver was performed in accordance with the method described in “A simple method for the isolation and purification of total lipids from animal tissues” (Folch and two other members, Journal of Biological Chemistry, vol. 226, p 497-509, 1957). A part of the lower layer of the liquid liver extract (the chloroform-containing layer) was separated, and the chloroform contained therein was evaporated under nitrogen gas current. The liquid with the chloroform removed was used as a sample for measuring liver lipid contents. The cholesterol, phospholipid, and triglyceride contents in the liver were enzymatically measured with commercial kits (Cholesterol E-Test Wako, Phospholipid C-Test Wako, and Triglyceride E-Test Wako; products of Wako Pure Chemical Industries, Ltd.), respectively.

[3] = tested on: Otsuka Long-Evans Tokushima Fatty (OLETF) rats; test: Serum glucose, free fatty acids and insulin in OLETF rats; assay type: in vivo, rat; details: end of six-week experiment, M±SE
Description: Six week after the initiation of the experiment, without prior abstinence from feed, each rat was anesthetized by administering approximately 50 mg/kg of pentobarbital sodium (product of Dainippon Pharmaceutical Co., Ltd.) into the abdominal cavity to remove all of its blood via the abdominal aorta with an injection syringe. This operation was performed during the period from 10:00 am to 12:00 am. The blood obtained by the operation was set aside for 1 hour at room temperature and subsequently at 4° C. for a period in the range of 1 to 2 hours. Thereafter, blood serum was separated by means of centrifugation at 2500 rpm at 4° C. for 10 minutes. Furthermore, the glucose and free fatty acid content in he serum were enzymatically measured with commercial kits (Glucose CII-Test Wako and NEFA C-Test Wako; products of Wako Pure Chemical Industries, Ltd.), respectively. The serum insulin content was determined in accordance with the Sandwich ELISA (enzyme-linked immunosorbent assay) method using a Rat insulin ELISA kit (product of Shibayagi Co., Ltd.). Therefore, the insulin content is shown in terms of Immuno-reactive insulin (IRI; pg/ml).

[4] = tested on: Otsuka Long-Evans Tokushima Fatty (OLETF) rats; test: Serum apolipoprotein contents in OLETF rats; assay type: in vivo, rat; details: M±SE
Description: The respective contents of various apolipoproteins, i.e. apoA-I, apoB, and apoE, as well as the respective apoE contents in the LDL and HDL fractions, were determined by the rocket immunoelectrophoresis method described in “Age-related changes in serum concentrations of apolipoprotein A-I, E, and A-IV in SHRSP” by Hiroshi Ogawa and 4 other members (G.B., Journal of Hypertension, vol. 4, p 429-453, 1986). The aforementioned immunoelectrophoresis method is in accordance with the Laurell method and adjustment of a part of the method presented by C. B. Laurell in “Quantitative estimation of proteins by electrophoresis in agarose-gel containing antibodies” (USA, Analytical Biochemistry, vol. 15, p 42-52, 1966). The antibodies used for this measurement were specific antibodies obtained from rabbits by using antigens that were various apolipoproteins separated and refined from rat serum. Furthermore, apoB/apoA-I was calculated from the results of measurement of apoA-I and apoB.

[5] = tested on: Otsuka Long-Evans Tokushima Fatty (OLETF) rats; test: Serum and lipoprotein fraction cholesterol, phospholipid, triglyceride in OLETF rats; assay type: in vivo, rat; details: end of six-week experiment, M±SE
Description: Six week after the initiation of the experiment, without prior abstinence from feed, each rat was anesthetized by administering approximately 50 mg/kg of pentobarbital sodium (product of Dainippon Pharmaceutical Co., Ltd.) into the abdominal cavity to remove all of its blood via the abdominal aorta with an injection syringe. This operation was performed during the period from 10:00 am to 12:00 am. The blood obtained by the operation was set aside for 1 hour at room temperature and subsequently at 4° C. for a period in the range of 1 to 2 hours. Thereafter, blood serum was separated by means of centrifugation at 2500 rpm at 4° C. for 10 minutes. Fractions of various lipoproteins were separated from the blood serum obtained at the time of whole blood extraction. […] Therefore, it is not possible with step-wise density gradient ultracentrifugation employed for this experiment to exclusively separate native LDL, and the LDL fraction separated in this stage contains HDL1 that existed together with LDL. The cholesterol, phospholipid, and triglyceride contents in the serum and each lipoprotein fraction were enzymatically measured with commercial kits (Cholesterol E-Test Wako, Phospholipid C-Test Wako, and Triglyceride E-Test Wako; products of Wako Pure Chemical Industries, Ltd.), respectively.

[6] = Body weight and food intake of OLETF rats; assay type: in vivo, rat; details: M±SE
Source text: The rats that were the subjects of the experiment were divided into three groups: a Control group to be fed a control diet, a Hercampuri group to be fed a Hercampuri-enriched diet, and an Acarbose group to be fed an Acarbose-enriched diet. […] This control diet was purified animal feed containing casein as the source of protein. The Hercampuri-enriched diet fed to the rats in the Hercampuri group was produced by adding Hercampuri extract powder at a mixing ratio of 2% to the control diet. The Acarbose-enriched diet fed to the rats in the Acarbose group was produced by adding Acarbose (product of Bayer AG) at a mixing ratio of 0.2% to the control diet. For each experimental diet, the amount of the added subject ingredient was compensated for by adjusting the amount of corn starch. Male OLETF rats and LETO rats delivered from Tokushima Research Institute of Otsuka Pharmaceutical Co., Ltd. were used as the subject animals. Each one of these OLETF rats and LETO rats was born during the period of June 10th to June 13th in 2002. […] The rats had free access to feed (CE-2: product of Clea Japan, Inc.) and drinking water (tap water). […] During the experiment, the body weights and the amounts of food intake were measured every other day. […]

[7] = tested on: streptozotocin (STZ)-induced diabetic rats; details: Planta Medica 1994, 1995; cited from earlier work

SMILES	7α-hydroxylase [1] [nmol/min/mg protein]	Liver Cholesterol [2] [mg/wet g]	Liver Phospholipid [2] [mg/wet g]	Liver Triglyceride [2] [mg/wet g]	Liver weight [2] [g/100 g B.W.]	Serum FFA [3]	Serum Glucose [3]	Serum IRI (immuno-reactive insulin) [3]	ApoB/apoA-I (×100) ([4]; calculated from apoA-I and apoB)	Serum apoA-I ([4]; end of six-week experiment)	Serum apoB ([4]; end of six-week experiment)	Serum apoE ([4]; end of six-week experiment)	Serum Cholesterol [5]	Serum Phospholipid [5]	Serum Triglyceride [5]	Food intake ([6]; average over six weeks)	Body weight ([6]; end of six-week experiment)	Blood sugar levels [7]
C[C@H]1O[C@H](O[C@H]2[C@H](O)[C@@H](O)[C@@H](O[C@H]3[C@H](O)[C@@H](O)C(O)O[C@@H]3CO)O[C@@H]2CO)[C@H](O)[C@@H](O)[C@@H]1N[C@H]1C=C(CO)[C@@H](O)[C@H](O)[C@H]1O (stereo partly drawn) [Acarbose]	34.5	5.39	32.9	75.4	3.40	751 ± 38^c μEq/L	193 ± 12^c mg/dL	665 ± 231^b pg/mL	3.15 ± 0.06^c	126 ± 4^a mg/dL	3.95 ± 0.14^b mg/dL	55.5 ± 2.7^b mg/dL	150 ± 11^b mg/dL	178 ± 10^b mg/dL	55.6 ± 1.7^c mg/dL	12.9 ± 0.9^a g/rat/day	639 ± 14^b g	–
COc1cc(O)c2c(=O)c3c(O)ccc(O)c3oc2c1 [Bellidifolin]	–	–	–	–	–	–	–	–	–	–	–	–	–	–	–	–	–	has a function of reducing blood sugar levels

Reference: US20060051436A1, “Composition for controlling excessive calorie intake-induced disorder, food product for controlling excessive calorie intake-induced disorder, skin preparation for external use for controlling excessive calorie intake-induced disorder, and controlling agent for excessive calorie intake-induced …” (Towa Corporation Kabushiki Kaisha, priority 2004, published 2006)
